Experimental data from the supplement of paper PMC10883282.

Assays:
Test in all cases: relative viability vs DMSO control (72 h) (fraction); higher = more viable cells
RD-ES = system: RD-ES
How it was run: (§1)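 Sarcoma cell lines in 384-well plates, seeded to reach 80–90% confluence, were given compound after 24 h and kept 72 h at 37 °C, 5% CO2, with 0.1% DMSO vehicle and a 5 µM positive control. Relative viability came from ATPLite as percent growth, averaged over up to triplicate wells. On the rescaled values, 1 equals full and 0 equals none.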

HT1080 = system: HT1080
How it was run: as §1

KHOS-NP = system: KHOS-NP
How it was run: as §1

SW684 = system: SW684
How it was run: as §1

SYO-1 = system: SYO-1
How it was run: as §1

CCC(=O)N1CC[C@H](Nc2ncnc3c2CN(c2cnc(OC)c(C(F)(F)F)c2)CC3)C1 [Leniolisib]
relative viability
Details | HT1080 | KHOS-NP | RD-ES | SW684 | SYO-1
0.00017 µM | 1.09 | 1.11 | 0.985 | 1.091 | 1.03
0.00051 µM | 1.077 | 1.11 | 1.034 | 1.14 | 0.999
0.00152 µM | 1.1 | 1.09 | 1.03 | 1.14 | 0.984
0.00457 µM | 1.09 | 1.101 | 1.03 | 1.14 | 0.965
0.01372 µM | 1.05 | 1.08 | 1 | 1.15 | 0.947
0.04115 µM | 1.038 | 1.07 | 1.02 | 1.03 | 0.949
0.1235 µM | 1.05 | 1.07 | 0.989 | 0.912 | 0.933
0.3704 µM | 1.04 | 1.061 | 0.958 | 0.793 | 0.886
1.111 µM | 1.03 | 1.05 | 0.908 | 0.742 | 0.875
3.333 µM | 1.04 | 1.05 | 0.856 | 0.674 | 0.816
10 µM | 0.94 | 0.96 | 0.709 | 0.548 | 0.724

C[C@]12O[C@H](C[C@]1(O)CO)n1c3ccccc3c3c4c(c5c6ccccc6n2c5c31)CNC4=O [Lestaurtinib]
relative viability
Details | HT1080 | KHOS-NP | RD-ES | SW684 | SYO-1
0.00017 µM | 1.09 | 1.11 | 0.996 | 1.15 | 1.02
0.00051 µM | 1.11 | 1.108 | 1 | 1.18 | 0.989
0.00152 µM | 1.1 | 1.11 | 0.999 | 1.16 | 0.992
0.00457 µM | 1.12 | 1.1 | 0.989 | 1.17 | 0.991
0.01372 µM | 1.09 | 1.1 | 0.936 | 1.18 | 0.943
0.04115 µM | 1.12 | 1.08 | 0.804 | 1.13 | 0.873
0.1235 µM | 0.915 | 0.9051 | 0.497 | 1.11 | 0.644
0.3704 µM | 0.877 | 0.785 | 0.288 | 0.913 | 0.295
1.111 µM | 0.689 | 0.471 | 0.16 | 0.659 | 0.0874
3.333 µM | 0.185 | 0.205 | 0.0482 | 0.346 | 0.1
10 µM | 0.0222 | 0.091 | 0.0633 | 0.0527 | 0.102

N#CCNC(=O)c1ccc(-c2ccnc(Nc3ccc(N4CCOCC4)cc3)n2)cc1 [Momelotinib]
relative viability
Details | HT1080 | KHOS-NP | RD-ES | SW684 | SYO-1
0.00017 µM | 1.03 | 1.09 | 0.9849 | 1.12 | 1.02
0.00051 µM | 1.1 | 1.099 | 0.981 | 1.15 | 1.02
0.00152 µM | 1.069 | 1.101 | 0.9765 | 1.09 | 1.01
0.00457 µM | 1.06 | 1.09 | 0.965 | 1.13 | 1.02
0.01372 µM | 1.08 | 1.115 | 0.976 | 1.12 | 0.985
0.04115 µM | 1.09 | 1.11 | 0.954 | 1.13 | 1.01
0.1235 µM | 1.12 | 1.101 | 0.955 | 1.1 | 0.933
0.3704 µM | 1.17 | 1.08 | 0.896 | 1.02 | 0.809
1.111 µM | 1.18 | 1.01 | 0.818 | 0.795 | 0.643
3.333 µM | 1.25 | 1.05 | 0.84 | 0.82 | 0.503
10 µM | 1.21 | 0.983 | 0.797 | 0.646 | 0.289

Cc1ccc(Nc2nccc(N(C)c3ccc4c(C)n(C)nc4c3)n2)cc1S(N)(=O)=O [Pazopanib]
relative viability
Details | HT1080 | KHOS-NP | RD-ES | SW684 | SYO-1
0.00017 µM | 1.03 | 1.04 | 0.95 | 1.13 | 0.919
0.00051 µM | 1.064 | 1.05 | 0.95 | 1.13 | 0.901
0.00152 µM | 1.04 | 1.038 | 0.968 | 1.19 | 0.882
0.00457 µM | 1.05 | 1.02 | 0.962 | 1.15 | 0.862
0.01372 µM | 1.045 | 1.02 | 0.985 | 1.15 | 0.823
0.04115 µM | 1.05 | 1.06 | 0.975 | 1.129 | 0.777
0.1235 µM | 1.03 | 1.03 | 0.96 | 1.14 | 0.685
0.3704 µM | 1.03 | 1.01 | 0.973 | 1.12 | 0.576
1.111 µM | 1.05 | 0.99 | 1 | 1.16 | 0.506
3.333 µM | 1.07 | 0.968 | 0.9311 | 1.13 | 0.471
10 µM | 1.07 | 0.719 | 0.727 | 0.878 | 0.369

CCN1C(=O)N(c2c(F)c(OC)cc(OC)c2F)Cc2cnc3[nH]c(CN4CCOCC4)cc3c21 [Pemigatinib]
relative viability
Details | HT1080 | KHOS-NP | RD-ES | SW684 | SYO-1
0.00017 µM | 1.05 | 1.09 | 0.959 | 1.1 | 0.97
0.00051 µM | 1.09 | 1.06 | 0.951 | 1.12 | 0.962
0.00152 µM | 1.06 | 1.088 | 0.953 | 1.13 | 0.89
0.00457 µM | 1.06 | 1.088 | 0.959 | 1.07 | 0.86
0.01372 µM | 1.036 | 1.055 | 0.964 | 1.12 | 0.774
0.04115 µM | 1.1 | 1.065 | 0.955 | 1.07 | 0.763
0.1235 µM | 1.09 | 1.07 | 0.952 | 1.05 | 0.733
0.3704 µM | 1.07 | 1.05 | 0.958 | 1.13 | 0.725
1.111 µM | 1.104 | 1.06 | 0.859 | 1.1 | 0.687
3.333 µM | 0.875 | 1.08 | 0.7215 | 0.971 | 0.652
10 µM | 0.807 | 1.05 | 0.54 | 0.802 | 0.635

COc1cc(OC)c(/C=C/S(=O)(=O)Cc2ccc(OC)c(NCC(=O)O)c2)c(OC)c1 [Rigosertib]
relative viability
Details | HT1080 | KHOS-NP | RD-ES | SW684 | SYO-1
0.00017 µM | 1.07 | 1.09 | 0.999 | 1.14 | 0.957
0.00051 µM | 1.03 | 1.09 | 1 | 1.2 | 0.982
0.00152 µM | 1.07 | 1.1 | 1 | 1.15 | 0.96
0.00457 µM | 1.06 | 1.11 | 0.993 | 1.19 | 0.961
0.01372 µM | 1.05 | 1.1 | 1.01 | 1.19 | 0.942
0.04115 µM | 1.08 | 1.11 | 1 | 1.15 | 0.966
0.1235 µM | 1.06 | 1.08 | 0.732 | 1.02 | 0.941
0.3704 µM | 0.412 | 0.704 | 0.143 | 0.73 | 0.896
1.111 µM | 0.0983 | 0.478 | 0.0474 | 0.681 | 0.3561
3.333 µM | 0.0596 | 0.414 | 0.031 | 0.713 | 0.287
10 µM | 0.0541 | 0.357 | 0.027 | 0.756 | 0.305

COCCNc1cc(NC(=O)N2CCCc3cc(CN4CCN(C)CC4=O)c(C=O)nc32)ncc1C#N [Roblitinib]
relative viability
Details | HT1080 | KHOS-NP | RD-ES | SW684 | SYO-1
0.00017 µM | 1 | 1.05 | 0.972 | 1.1 | 0.933
0.00051 µM | 1.04 | 1.03 | 0.981 | 1.09 | 0.931
0.00152 µM | 0.971 | 1.04 | 0.986 | 1.08 | 0.9221
0.00457 µM | 0.9973 | 1.04 | 0.965 | 1.03 | 0.92
0.01372 µM | 0.951 | 1.05 | 0.968 | 1.04 | 0.914
0.04115 µM | 1.04 | 1.04 | 0.9621 | 1.05 | 0.889
0.1235 µM | 1.05 | 1.06 | 0.958 | 1.09 | 0.879
0.3704 µM | 1.07 | 1.05 | 0.952 | 1.08 | 0.855
1.111 µM | 0.952 | 1.05 | 0.936 | 1.13 | 0.867
3.333 µM | 1.029 | 1.04 | 0.884 | 1.09 | 0.845
10 µM | 0.997 | 1.02 | 0.867 | 1.02 | 0.87
